From patent US20070004660A1, “Synergistic Modulation of Flt3 Kinase Using Alkylquinolines and Alkylquinazolines” (priority 2005, published 2007)
pIC50: −log10 of the molar value.

Molecular target: T1, isolated kinase domain of the human FLT3 receptor (a.a. 571-993) (Homo sapiens, UniProt P36888)
T1 construct: human FLT3 receptor (a.a. 571-993)
T1 sequence (P36888 571-993): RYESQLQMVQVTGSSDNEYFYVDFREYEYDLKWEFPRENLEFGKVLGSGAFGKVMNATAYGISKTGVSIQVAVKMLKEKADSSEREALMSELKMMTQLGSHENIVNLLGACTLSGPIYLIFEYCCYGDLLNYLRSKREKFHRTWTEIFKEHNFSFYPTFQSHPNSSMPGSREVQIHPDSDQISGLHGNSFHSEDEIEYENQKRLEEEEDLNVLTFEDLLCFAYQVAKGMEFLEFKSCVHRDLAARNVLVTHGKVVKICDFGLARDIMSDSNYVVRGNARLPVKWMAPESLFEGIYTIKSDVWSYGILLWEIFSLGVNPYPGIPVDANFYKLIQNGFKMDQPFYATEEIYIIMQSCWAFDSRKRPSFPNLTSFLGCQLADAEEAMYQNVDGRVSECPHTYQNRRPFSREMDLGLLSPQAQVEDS
Experiment: FLT3 fluorescence polarization kinase assay
Type: biochemical
Conditions: 150 uM ATP; uncertainty ±10%

| pIC50 | SMILES |
| --- | --- |
| 6.36 | CC(C)Oc1ccc(NC(=O)N2CCC(c3ncnc4ccc(N5CCN(C)CC5)cc34)CC2)cc1 [Example 131, 4-[6-(4-Methyl-piperazin-1-yl)-quinazolin-4-yl]-piperidine-1-carboxylic acid (4-isopropoxy-phenyl)-amide] |
| 7.57 | CN1CCN(c2ccc3c(C4CCN(C(=O)Nc5ccc(N6CCOCC6)cc5)CC4)ncnc3c2)CC1 [Example 135, 4-[7-(4-Methyl-piperazin-1-yl)-quinazolin-4-yl]-piperidine-1-carboxylic acid (4-morpholin-4-yl-phenyl)-amide] |
| 7.60 | CCN1CCN(c2ccc3c(C4CCN(C(=O)Nc5ccc(N6CCOCC6)cc5)CC4)ncnc3c2)CC1 [Example 136, 4-[7-(4-Ethyl-piperazin-1-yl)-quinazolin-4-yl]-piperidine-1-carboxylic acid (4-morpholin-4-yl-phenyl)-amide] |
| 7.55 | CN1CCCN(c2ccc3c(C4CCN(C(=O)Nc5ccc(N6CCOCC6)cc5)CC4)ncnc3c2)CC1 [Example 138, 4-[7-(4-Methyl-[1,4]diazepan-1-yl)-quinazolin-4-yl]-piperidine-1-carboxylic acid (4-morpholin-4-yl-phenyl)-amide] |
| 7.48 | O=C(Nc1ccc(N2CCOCC2)cc1)N1CCC(c2ncnc3cc(N4CCC[C@H]4CO)ccc23)CC1 [Example 139, (S)-4-[7-(2-Hydroxymethyl-pyrrolidin-1-yl)-quinazolin-4-yl]-piperidine-1-carboxylic acid (4-morpholin-4-yl-phenyl)-amide] |
| 8.40 | CN(C)C(=O)N1CCN(c2ccc3c(C4CCN(C(=O)Nc5ccc(N6CCOCC6)cc5)CC4)ncnc3c2)CC1 [Example 143, 4-{4-[1-(4-Morpholin-4-yl-phenylcarbamoyl)-piperidin-4-yl]-quinazolin-7-yl}-piperazine-1-carboxylic acid dimethylamide] |
| 7.52 | O=C(Nc1ccc(N2CCOCC2)cc1)N1CCC(c2ncnc3cc(OCCN4CCOC4=O)ccc23)CC1 [Example 148, 4-{7-[2-(2-Oxo-oxazolidin-3-yl)-ethoxy]-quinazolin-4-yl}-piperidine-1-carboxylic acid (4-morpholin-4-yl-phenyl)-amide] |
| 7.85 | CN(C)[C@@H]1CCN(c2ccc3c(C4CCN(C(=O)Nc5ccc(N6CCOCC6)cc5)CC4)ncnc3c2)C1 [Example 150, (R)-4-[7-(3-Dimethylamino-pyrrolidin-1-yl)-quinazolin-4-yl]-piperidine-1-carboxylic acid (4-morpholin-4-yl-phenyl)-amide] |
| 7.82 | CC(=O)N1CC[C@@H](Oc2ccc3c(C4CCN(C(=O)Nc5ccc(N6CCCC6)cc5)CC4)ncnc3c2)C1 [Example 154, (R)-4-[7-(1-Acetyl-pyrrolidin-3-yloxy)-quinazolin-4-yl]-piperidine-1-carboxylic acid (4-pyrrolidin-1-yl-phenyl)-amide] |
| 8.10 | CNC(=O)C1CCN(c2ccc3c(C4CCN(C(=O)Nc5ccc(N6CCCC6)cc5)CC4)ncnc3c2)CC1 [Example 155, 4-[7-(4-Carboxylic acid methylamide-piperidin-1-yl)-quinazolin-4-yl]-piperidine-1-carboxylic acid (4-pyrrolidin-1-yl-phenyl)-amide] |

Second part, the molecule before the results:

| SMILES | pIC50 |
| --- | --- |
| COc1cc2ncnc(C3CCN(C(=O)Nc4ccc(CO)cc4)CC3)c2cc1OC [Example 22, 4-(6,7-Dimethoxy-quinazolin-4-yl)-piperidine-1-carboxylic acid (4-hydroxymethyl-phenyl)-amide] | 5.36 |
| COc1cc2ncnc(C3CCN(C(=O)Nc4ccc5[nH]ccc5c4)CC3)c2cc1OC [Example 23, 4-(6,7-Dimethoxy-quinazolin-4-yl)-piperidine-1-carboxylic acid (1H-indol-5-yl)-amide] | 6.41 |
| COc1cc2ncnc(C3CCN(C(=O)Nc4ccc5ncsc5c4)CC3)c2cc1OC [Example 24, 4-(6,7-Dimethoxy-quinazolin-4-yl)-piperidine-1-carboxylic acid benzothiazol-6-ylamide] | 5.26 |
| O=C(Nc1ccc(N2CCOCC2)cc1)N1CCC(c2ncnc3cc(N4CC[C@H](O)C4)ccc23)CC1 [Example 128, 4-[7-(3-Hydroxy-pyrrolidin-1-yl)-quinazolin-4-yl]-piperidine-1-carboxylic acid (4-morpholin-4-yl-phenyl)-amide] | 7.60 |
| O=C(Nc1ccc(N2CCOCC2)cc1)N1CCC(c2ncnc3cc(N4CCC[C@@H]4CO)ccc23)CC1 [Example 132, (R)-4-[7-(2-Hydroxymethyl-pyrrolidin-1-yl)-quinazolin-4-yl]-piperidine-1-carboxylic acid (4-morpholin-4-yl-phenyl)-amide] | 7.17 |
| O=C(Nc1ccc(N2CCOCC2)cc1)N1CCC(c2ncnc3cc(OCCCN4CCOCC4)ccc23)CC1 [Example 133, 4-[7-(3-Morpholin-4-yl-propoxy)-quinazolin-4-yl]-piperidine-1-carboxylic acid (4-morpholin-4-yl-phenyl)-amide] | 8.70 |
| CCN(CC)CCCOc1ccc2c(C3CCN(C(=O)Nc4ccc(N5CCOCC5)cc4)CC3)ncnc2c1 [Example 134, 4-[7-(3-Diethylamino-propoxy)-quinazolin-4-yl]-piperidine-1-carboxylic acid (4-morpholin-4-yl-phenyl)-amide] | 8.70 |
| O=C(Nc1ccc(N2CCOCC2)cc1)N1CCC(c2ncnc3cc(N4CCN(CCO)CC4)ccc23)CC1 [Example 137, 4-{7-[4-(2-Hydroxy-ethyl)-piperazin-1-yl]-quinazolin-4-yl}-piperidine-1-carboxylic acid (4-morpholin-4-yl-phenyl)-amide] | 7.92 |
| O=C(Nc1ccc(N2CCOCC2)cc1)N1CCC(c2ncnc3cc(N4CCNCC4)ccc23)CC1 [Example 140, 4-(7-Piperazin-1-yl-quinazolin-4-yl)-piperidine-1-carboxylic acid (4-morpholin-4-yl-phenyl)-amide] | 7.35 |
| CC(=O)N1CCN(c2ccc3c(C4CCN(C(=O)Nc5ccc(N6CCOCC6)cc5)CC4)ncnc3c2)CC1 [Example 141, 4-[7-(4-Acetyl-piperazin-1-yl)-quinazolin-4-yl]-piperidine-1-carboxylic acid (4-morpholin-4-yl-phenyl)-amide] | 7.18 |
| CS(=O)(=O)N1CCN(c2ccc3c(C4CCN(C(=O)Nc5ccc(N6CCOCC6)cc5)CC4)ncnc3c2)CC1 [Example 142, 4-[7-(4-Methanesulfonyl-piperazin-1-yl)-quinazolin-4-yl]-piperidine-1-carboxylic acid (4-morpholin-4-yl-phenyl)-amide] | 8.22 |
| CN(C)CC(=O)N1CCN(c2ccc3c(C4CCN(C(=O)Nc5ccc(N6CCOCC6)cc5)CC4)ncnc3c2)CC1 [Example 144, 4-{7-[4-(2-Dimethylamino-acetyl)-piperazin-1-yl]-quinazolin-4-yl}-piperidine-1-carboxylic acid (4-morpholin-4-yl-phenyl)-amide] | 7.89 |
| O=C(Nc1ccc(N2CCOCC2)cc1)N1CCC(c2ncnc3cc(N4CCOCC4)ccc23)CC1 [Example 145, 4-(7-Morpholin-4-yl-quinazolin-4-yl)-piperidine-1-carboxylic acid (4-morpholin-4-yl-phenyl)-amide] | 7.19 |
| CS(=O)(=O)CCNc1ccc2c(C3CCN(C(=O)Nc4ccc(N5CCOCC5)cc4)CC3)ncnc2c1 [Example 146, 4-[7-(2-Methanesulfonyl-ethylamino)-quinazolin-4-yl]-piperidine-1-carboxylic acid (4-morpholin-4-yl-phenyl)-amide] | 6.56 |
| O=C(Nc1ccc(N2CCCC2)cc1)N1CCC(c2ncnc3cc(OCCN4CCOC4=O)ccc23)CC1 [Example 147, 4-{7-[2-(2-Oxo-oxazolidin-3-yl)-ethoxy]-quinazolin-4-yl}-piperidine-1-carboxylic acid (4-pyrrolidin-1-yl-phenyl)-amide] | 7.57 |
| CN(C)[C@@H]1CCN(c2ccc3c(C4CCN(C(=O)Nc5ccc(N6CCCC6)cc5)CC4)ncnc3c2)C1 [Example 149, (R)-4-[7-(3-Dimethylamino-pyrrolidin-1-yl)-quinazolin-4-yl]-piperidine-1-carboxylic acid (4-pyrrolidin-1-yl-phenyl)-amide] | 7.34 |
| CN1CCC[C@H]1COc1ccc2c(C3CCN(C(=O)Nc4ccc(N5CCCC5)cc4)CC3)ncnc2c1 [Example 151, (S)-4-[7-(1-Methyl-pyrrolidin-2-ylmethoxy)-quinazolin-4-yl]-piperidine-1-carboxylic acid (4-pyrrolidin-1-yl-phenyl)-amide] | 7.21 |
| O=C(Nc1ccc(N2CCCC2)cc1)N1CCC(c2ncnc3cc(OCCN4CCC[C@H]4CO)ccc23)CC1 [Example 152, (S)-4-{7-[2-(2-Hydroxymethyl-pyrrolidin-1-yl)-ethoxy]-quinazolin-4-yl}-piperidine-1-carboxylic acid (4-pyrrolidin-1-yl-phenyl)-amide] | 7.74 |
| O=C(Nc1ccc(N2CCOCC2)cc1)N1CCC(c2ncnc3cc(OCCN4CCC[C@H]4CO)ccc23)CC1 [Example 153, (S)-4-{7-[2-(2-Hydroxymethyl-pyrrolidin-1-yl)-ethoxy]-quinazolin-4-yl}-piperidine-1-carboxylic acid (4-morpholin-4-yl-phenyl)-amide] | 7.66 |
| CN1CCN(CCOc2ccc3c(C4CCN(C(=O)Nc5ccc(N6CCOCC6)cc5)CC4)ncnc3c2)CC1 [Example 156, 4-{7-[2-(4-Methyl-piperazin-1-yl)-ethoxy]-quinazolin-4-yl}-piperidine-1-carboxylic acid (4-morpholin-4-yl-phenyl)-amide] | 8.22 |
